These results are taken from patent US5567707A, “Acronycine analogues” (Adir et Compagnie, priority 1994, dated 1996).

Each structure is given as a SMILES string. pIC50: −log10 of the molar value. Like-named read-outs stand apart in the source and are kept apart here.

For orientation: pIC50 means the negative decadic logarithm of the IC50, by convention in mol/L. A low value points to a high IC50.

The conditions of series [1]: cited from earlier work.
The conditions of series [2]: background statement; prevented i.v. administration; cited from earlier work.
The conditions of series [3]: J. H. Scarffe et al.; cited from earlier work.
For a further series, the system named is experimental models. The settings on record: especially against solid tumours, G. H. Svoboda et al.; cited from earlier work.
For another series, the system named is colon 38. The experiment in a line: Anti-tumour activity in vivo against colon 38. Also noted: species or system B6D2F1 mice. The settings on record: for median T/C % (tumour volume on D21): D2,9, i.p. The protocol: (§1) In this Example, the compounds were suspended in Tween 80, then diluted with water. The concentration of Tween is at a maximum of 1% at the strongest doses. The control animals received the carrier only.
Colon 38 (supplied by NCI, Frederick, U.S.A.) was inserted in the form of fragments by the subcutaneous route (s.c.) into female B6D2F1 mice. The compounds were administered by the i.p. route on D2 and D9 and the anti-tumour activity was determined on D21 by measuring the rumour volume (T/C volume, %). [formula]

A further series deals with P388 (murine leukaemia). The experiment in a line: Anti-tumour activity in vivo against line P388. Also noted: species or system murine; B6D2F1 mice.
Excerpt: as §1
Line P388 (murine leukaemia) was supplied by the National Cancer Institute (Frederick, U.S.A.). The tumour cells (10^6 cells) were inoculated on day 0 into the peritoneal cavity of female B6D2F1 mice (Iffa-Credo, France). Eight to ten mice, of a weight ranging from 18 to 20 g, were used for each experimental group. The compounds were administered via the intraperitoneal route on day 1 or once a day for 4 days (D1-4), and by the intravenous route on day 1.
The anti-tumour activity is expressed as a T/C %: [formula]
Table 2 indicates the anti-tumour activity achieved at the optimum doses for each scheme and administration route.

A further series relates to murine leukaemia L1210. The experiment in a line: Cytotoxicity for L1210 cells in culture (Microculture Tetrazolium Assay). The series is classed as cell-based. The settings on record: Mus musculus, four doubling periods (48 hours). On the procedure: A cell line, murine leukaemia L1210, was used. The cells are cultivated in a complete culture medium RPMI 1640, containing 10% foetal calf serum, 2 mM glutamine, 50 units/ml penicillin, […] streptomycin and 10 mM Hepes, pH: 7.4. The cells are distributed on microplates and exposed to the cytotoxic compounds for four doubling periods, that is 48 hours. The number of viable cells is then quantified by a colorimetric assay, the Microculture Tetrazolium Assay (J. Carmichael et al., Cancer Res., 47, 936-942, (1987)). The results are expressed as IC50, the concentration of cytotoxic agent that inhibits the proliferation of treated cells by 50%.

The next series is described as follows: Solubility. It counts as physicochemical. The settings on record: prevents i.v. testing.
Series [4] has as its system HT-29 tumour cells (human colon adenocarcinoma). The experiment in a line: HT-29 xenograft in hairless mice. The series is classed as in vivo, human tumour in hairless mice.
Excerpt: as §1
HT-29 tumour cells originating from a human colon adenocarcinoma (American Type Culture Collection, U.S.A.) are inoculated by the subcutaneous route into hairless female mice (Iffa Credo, France). The tumour is then amplified by successive passages of tumour fragments of 2-3 mm^3 implanted bilaterally by the subcutaneous route in the animals' flanks. […] The animals are weighed and their tumour is measured twice a week.
The tumour volume is calculated in accordance with the following formula: [formula]
The results are expressed as the median relative tumour volume: [formula]
The anti-tumour activity of the compound administered is evaluated by the minimum value of the median T/C calculated at time t: [formula]
The minimum value of this parameter is evaluated a minimum of 7 days after the last treatment in accordance with EORTC (European Organization for the […]) standards.
(§2) The animals are treated by the i.p. route by weekly administration for 2 weeks of the compound of Example 1. D0 corresponds to the first time the tumours are measured and the first administration of compound.
On the technique in general: In xenograft studies the graft and the host belong to different species.

Series [5] in a line: Body weight change of hairless mice bearing HT-29 xenograft. It counts as in vivo. The settings on record: 6.25 mg/kg, D0,7, i.p.
Excerpt: HT-29 tumour cells originating from a human colon adenocarcinoma (American Type Culture Collection, U.S.A.) are inoculated by the subcutaneous route into hairless female mice (Iffa Credo, France). The tumour is then amplified by successive passages of tumour fragments of 2-3 mm^3 implanted bilaterally by the subcutaneous route in the animals' flanks. When the tumour has reached a size of 50 mm^3 (that is between 7 and 10 days after the graft), the animals are randomised into groups of 7 to 10 mice and treated in accordance with the protocol indicated. The animals are weighed and their tumour is measured twice a week.
as §2

`COc1cc2c(c3c1c(=O)c1ccccc1n3C)C=CC(C)(C)O2` [acronycine]: the “oral bioavailability (in words)” value in series [1] is reported as “poor bioavailability”. In addition, the “solubility (in words)” value in [2] is given as “insolubility”; in the series “Solubility” it was “completely insoluble”. Further, in [3], the clinical response result is “little response”. The “anti-tumour spectrum (in words)” value in the series with experimental models is given as “broad spectrum of activity”. In addition, the results for the “median T/C % (tumour volume on D21)” value with colon 38 (100 mg/kg) and in the series on colon 38 (200 mg/kg) were 77% and 61%, respectively. Further, the “T/C % (survival)” value in the series on P388 (murine leukaemia) (D1, i.p., optimum dose 200 mg/kg) was 125%; in the series with P388 (murine leukaemia) (D1-4, i.p., optimum dose 100 mg/kg) it was 136%. Also, the “activity against P388 (in words)” value in the series with P388 (murine leukaemia) (i.p. route, at far stronger doses) is on record as “weak activity”. This compound showed a pIC50 with murine leukaemia L1210 of 4.57.
In the series with murine leukaemia L1210, `COc1cc2c(c3c1c(=O)c1ccccc1n3C)[C@@H](OC(C)=O)[C@@H](OC(=O)c1ccccc1)C(C)(C)O2` (relative stereo) [Example 6, (±)-cis-1-acetoxy-2-benzoyloxy-1,2-dihydro-acronycine] had a pIC50 of 5.30.
Consider `O=c1[nH]cc(F)c(=O)[nH]1` [5-fluoro-uracil, reference compound], for which the “median T/C % (tumour volume on D21)” value in the series on colon 38 (80 mg/kg) came to 0%.
For `COc1cc2c(c3c1c(=O)c1ccccc1n3C)[C@@H](O)[C@@H](OC(=O)c1ccccc1)C(C)(C)O2` (relative stereo) [Example 5, (±)-cis-2-benzoyloxy-1-hydroxy-1,2-dihydro-acronycine], in the series with P388 (murine leukaemia) (D1, i.p., optimum dose 12.5 mg/kg), the “T/C % (survival)” value amounted to 258%. This compound gave a pIC50 with murine leukaemia L1210 of 5.15.
Regarding `COc1cc2c(c3c1c(=O)c1ccccc1n3C)[C@@H](OC(C)=O)[C@@H](OC(C)=O)C(C)(C)O2` (relative stereo) [Example 1, (±)-cis-1,2-diacetoxy-1,2-dihydro-acronycine], the “Minimum median T/C % (day)” value in series [4] (6.25 mg/kg, D0,7, i.p., minimum at D32) was 46%. Further, the “activity against HT-29 (in words)” value in [4] (i.p., weekly for 2 weeks) was “active against that very resistant tumour”. The “activity against colon 38 compared with 5-fluoro-uracil (in words)” value in the series on colon 38 (25 mg/kg versus 5-fluoro-uracil at 80 mg/kg) was “as active at 25 mg/kg as 5-fluoro-uracil”. The “median T/C % (tumour volume on D21)” value in the series with colon 38 (6.25 mg/kg) is given as 12%; in the series with colon 38 (12.5 mg/kg) it was 8%; with colon 38 (25 mg/kg), 1%. The “activity against colon 38 (in words)” value with colon 38 (i.p.) is “very active”. In series [5], the “Δ weight (D10-D0)” value was -1.1 g. In addition, the “T/C % (survival)” value with P388 (murine leukaemia) (D1, i.p., optimum dose 25 mg/kg) is given as 289%; with P388 (murine leukaemia) (D1, i.v., optimum dose 25 mg/kg), 220%; in the series on P388 (murine leukaemia) (D1-4, i.p., optimum dose 12.5 mg/kg), 172%. The “activity against P388 (in words)” value in the series with P388 (murine leukaemia) (i.p. and i.v. routes) is recorded as “extremely active”. The pIC50 in the series with murine leukaemia L1210 is 5.31.
In the case of `COc1cc2c(c3c1c(=O)c1ccccc1n3C)[C@H]1OC(=O)O[C@H]1C(C)(C)O2` (relative stereo) [Example 7, (±)-cis-1,2-carbonyldioxy-1,2-dihydro-acronycine], the “T/C % (survival)” value with P388 (murine leukaemia) (D1, i.p., optimum dose 50 mg/kg) came to 269%. Further, the pIC50 in the series on murine leukaemia L1210 is 6.70.
With `COc1cc2c(c3c1c(=O)c1ccccc1n3C)[C@H](OC(=O)c1ccccc1)[C@@H](OC(=O)c1ccccc1)C(C)(C)O2` (relative stereo) [Example 3, (±)-trans-1,2-dibenzoyloxy-1,2-dihydro-acronycine], the negative-log IC50 (pIC50) with murine leukaemia L1210 was 5.47.
